Assays:
Assay type in all cases: in vivo
Set-up in all cases: scale not given here
green foxtail (Se) = experiment: Test Example 6: crop plant selectivity by upland field soil treatment (soybean), herbicidal effects; settings: 21st day after application
In short: (§1)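 Pre-emergence soil treatment; sand-filled pots, seeds sown then soil-covered; greenhouse culture; visual rating of weed control and soybean injury on day 21 post-application per standard scale.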

[1] = tested on: common lambsquarters (Ch); experiment: as above; settings: 21st day after application
In short: as §1

pale smartweed (Po) [2] = experiment: as above; settings: 21st day after application
In short: as §1

slender amaranth (Am) [3] = experiment: as above; settings: 21st day after application
In short: as §1

China jute (Ab) [4] = experiment: as above; settings: 21st day after application
In short: as §1

slender amaranth (Am) [5] = experiment: Test Example 3: herbicidal effects by upland field foliage treatment; settings: 100 g active ingredient per 10 ares, evaluated 14th day after treatment
In short: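 Seeds → sand pot (120 cm^2) → soil cover → greenhouse 2 wk → foliar treatment → greenhouse → herbicidal score at 14 d post-treatment against graded standards.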

[6] = tested on: common lambsquarters (Ch); experiment: Test Example 7: crop plant selectivity by upland field soil treatment (corn), herbicidal effects; settings: 21st day after application
In short: (§2)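 Sand-filled pot; corn plus weeds sown, soil-covered. Post-application greenhouse culture. Herbicidal effect/phytotoxicity rated day 21 per standard scale.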

pale smartweed (Po) [7] = experiment: as above; settings: 21st day after application
In short: as §2

slender amaranth (Am) [8] = experiment: as above; settings: 21st day after application
In short: as §2

China jute (Ab) [9] = experiment: as above; settings: 21st day after application
In short: as §2

COCc1cc2c(-c3ccc(C(F)(F)F)n(C)c3=O)c(F)cc(Cl)c2o1 [Compound No. 4-4, 3-(7-chloro-5-fluoro-2-methoxymethylbenzofuran-4-yl)-1-methyl-6-trifluoromethyl-2-(1H)-pyridone]
5: Herbicidal effects Se (green foxtail (Se); dose 6.3 g ai/10a) | Herbicidal effects Ch ([1]; dose 6.3 g ai/10a) | Herbicidal effects Po (pale smartweed (Po) [2]; dose 6.3 g ai/10a) | Herbicidal effects Am (slender amaranth (Am) [3]; dose 6.3 g ai/10a) | Herbicidal effects Ab (China jute (Ab) [4]; dose 6.3 g ai/10a) | Herbicidal effects Am (slender amaranth (Am) [5]) | Herbicidal effects Ch ([6]; dose 1.6 g ai/10a) | Herbicidal effects Ch ([6]; dose 6.3 g ai/10a) | Herbicidal effects Po (pale smartweed (Po) [7]; dose 1.6 g ai/10a) | Herbicidal effects Po (pale smartweed (Po) [7]; dose 6.3 g ai/10a) | Herbicidal effects Am (slender amaranth (Am) [8]; dose 1.6 g ai/10a) | Herbicidal effects Am (slender amaranth (Am) [8]; dose 6.3 g ai/10a) | Herbicidal effects Ab (China jute (Ab) [9]; dose 1.6 g ai/10a) | Herbicidal effects Ab (China jute (Ab) [9]; dose 6.3 g ai/10a)

Cn1c(C(F)(F)F)ccc(-c2c(F)cc(Cl)c3oc(CO)cc23)c1=O [Compound No. 4-5, 3-(7-chloro-5-fluoro-2-hydroxymethylbenzofuran-4-yl)-1-methyl-6-trifluoromethyl-2-(1H)-pyridone]
5: Herbicidal effects Se (green foxtail (Se); dose 6.3 g ai/10a) | Herbicidal effects Ch ([1]; dose 6.3 g ai/10a) | Herbicidal effects Po (pale smartweed (Po) [2]; dose 6.3 g ai/10a) | Herbicidal effects Am (slender amaranth (Am) [3]; dose 6.3 g ai/10a) | Herbicidal effects Ab (China jute (Ab) [4]; dose 6.3 g ai/10a) | Herbicidal effects Am (slender amaranth (Am) [5]) | Herbicidal effects Ch ([6]; dose 6.3 g ai/10a) | Herbicidal effects Po (pale smartweed (Po) [7]; dose 6.3 g ai/10a) | Herbicidal effects Am (slender amaranth (Am) [8]; dose 6.3 g ai/10a) | Herbicidal effects Ab (China jute (Ab) [9]; dose 6.3 g ai/10a)

Cn1c(C(F)(F)F)ccc(-c2c(F)cc(Cl)c3occc23)c1=O [Compound No. 4-28, 3-(7-chloro-5-fluorobenzofuran-4-yl)-1-methyl-6-trifluoromethyl-2-(1H)-pyridone]
5: Herbicidal effects Se (green foxtail (Se); dose 1.6 g ai/10a) | Herbicidal effects Ch ([1]; dose 1.6 g ai/10a) | Herbicidal effects Po (pale smartweed (Po) [2]; dose 1.6 g ai/10a) | Herbicidal effects Am (slender amaranth (Am) [3]; dose 1.6 g ai/10a) | Herbicidal effects Ab (China jute (Ab) [4]; dose 1.6 g ai/10a) | Herbicidal effects Am (slender amaranth (Am) [5]) | Herbicidal effects Ch ([6]; dose 1.6 g ai/10a) | Herbicidal effects Po (pale smartweed (Po) [7]; dose 1.6 g ai/10a) | Herbicidal effects Am (slender amaranth (Am) [8]; dose 1.6 g ai/10a) | Herbicidal effects Ab (China jute (Ab) [9]; dose 1.6 g ai/10a)
